Experiment [1] is filed under the species Rattus norvegicus. Put plainly: Compound tested for inhibition of Ach-induced vasorelaxation was determined in rat aortic strips. In kind it is functional, Aorta. Also on record: concentration or dose not given beside the values.
The test system of experiment [2] is Rattus norvegicus. Put plainly: Effect on the wet thrombus weight in male wistar rat was determined(in vivo). It counts as functional. Also on record: unit not given beside the values.
The species named for experiment [3] is Oryctolagus cuniculus. The experiment in a line: Maximum rate of ADP induced platelet aggregation was determined in rabbit blood at a dose of 10-6 mol/L (in vitro). In kind it is functional.
For experiment [4], the species on record is Oryctolagus cuniculus. The experiment in a line: Maximum rate of PAF induced platelet aggregation was determined in rabbit blood at a dose of 10-5 mol/L (in vitro). It counts as functional.
The species entered for experiment [5] is Oryctolagus cuniculus. The experiment in a line: Maximum rate of PAF induced platelet aggregation was determined in rabbit blood at a dose of 10-6 mol/L (in vitro). It counts as functional.
The species named for experiment [6] is Oryctolagus cuniculus. The experiment in a line: Maximum rate of PAF induced platelet aggregation was determined in rabbit blood at a dose of 10-7 mol/L (in vitro). It counts as functional.
Experiment [7] relates to Rattus norvegicus. Put plainly: Effect on the dry thrombus weight in male wistar rat was determined(in vivo). In kind it is functional.
For experiment [8], the species on record is Oryctolagus cuniculus. The experiment in a line: Maximum rate of ADP induced platelet aggregation was determined in rabbit blood at a dose of 10-5 mol/L (in vitro). In kind it is functional.
For experiment [9], the species on record is Oryctolagus cuniculus. Put plainly: Maximum rate of ADP induced platelet aggregation was determined in rabbit blood at a dose of 10-7 mol/L (in vitro). In kind it is functional.

Where a SMILES comes first, the peptide text is derived from it. The star is where a group is joined. X1 = CC1(C)N(O)C(c2ccc(OCC(=O)*)cc2)=[N+]([O-])C1(C)C

What is called Inhibition is the relative decrease from the control value, in per cent. Compound `CC1(C)N(O)C(c2ccc(OCC(=O)O)cc2)=[N+]([O-])C1(C)C` gave an Inhibition in the experiment filed under Rattus norvegicus [1] of 99.2%. Also, the results for the Activity with Rattus norvegicus [2] and in the experiment on Rattus norvegicus [7] were 38.1 and 6.17, respectively. In addition, the Am was 51.96% in the experiment filed under Oryctolagus cuniculus [3]; 52.92% in the experiment listed under Oryctolagus cuniculus [4]; 52.98% in the experiment filed under Oryctolagus cuniculus [5]; 54.25% in the experiment filed under Oryctolagus cuniculus [6]; 51.6% in the experiment filed under Oryctolagus cuniculus [8]; 54.68% in the experiment filed under Oryctolagus cuniculus [9].

`CC1(C)N(O)C(c2ccc(OCC(=O)N[C@@H](CCCN=C(N)N)C(=O)NCC(=O)N[C@@H](CC(=O)O)C(=O)N[C@@H](Cc3ccccc3)C(=O)O)cc2)=[N+]([O-])C1(C)C` (X1-RGDF-OH) displayed an Inhibition in the experiment listed under Rattus norvegicus [1] of 88.9%. Moreover, the Activity worked out at 24.3 with Rattus norvegicus [2] and 3.16 in the experiment with Rattus norvegicus [7]. Also, the Am in the experiment listed under Oryctolagus cuniculus [3] was found to be 20.66%; in the experiment listed under Oryctolagus cuniculus [4], 9.98%; in the experiment listed under Oryctolagus cuniculus [5], 24.26%; in the experiment listed under Oryctolagus cuniculus [6], 50.02%; in the experiment listed under Oryctolagus cuniculus [8], 10.21%; in the experiment filed under Oryctolagus cuniculus [9] it was 35.25%.

`N=C(N)NCCC[C@H](N)C(=O)NCC(=O)N[C@@H](CC(=O)O)C(=O)N[C@@H](CO)C(=O)O` displayed an Inhibition in the experiment listed under Rattus norvegicus [1] of 3.2%. For the same compound, the Activity with Rattus norvegicus [2] amounted to 36.96; in the experiment with Rattus norvegicus [7], 6.68. The Am in the experiment listed under Oryctolagus cuniculus [3] amounted to 40.14%; in the experiment listed under Oryctolagus cuniculus [4] it was 22.66%; in the experiment filed under Oryctolagus cuniculus [5], 37.1%; in the experiment filed under Oryctolagus cuniculus [6], 54.21%; in the experiment filed under Oryctolagus cuniculus [8], 17.02%; in the experiment filed under Oryctolagus cuniculus [9], 53.55%.

`CC(C)[C@H](NC(=O)[C@H](CC(=O)O)NC(=O)CNC(=O)[C@H](CCCN=C(N)N)NC(=O)COc1ccc(C2=[N+]([O-])C(C)(C)C(C)(C)N2O)cc1)C(=O)O` (X1-RGDV-OH) returned an Inhibition in the experiment filed under Rattus norvegicus [1] of 91.2%. Moreover, the Activity in the experiment on Rattus norvegicus [2] worked out at 29.49; with Rattus norvegicus [7], 4.07. Further, the Am is 24.99% in the experiment filed under Oryctolagus cuniculus [3]; 20.45% in the experiment filed under Oryctolagus cuniculus [4]; 33.22% in the experiment listed under Oryctolagus cuniculus [5]; 50.88% in the experiment listed under Oryctolagus cuniculus [6]; 11.85% in the experiment listed under Oryctolagus cuniculus [8]; 49.98% in the experiment listed under Oryctolagus cuniculus [9].

The compound `N=C(N)NCCC[C@H](N)C(=O)NCC(=O)N[C@@H](CC(=O)O)C(=O)N[C@@H](Cc1ccccc1)C(=O)O` (H-RGDF-OH) gave an Inhibition in the experiment listed under Rattus norvegicus [1] of 2.6%. Besides, the Activity is 25.61 with Rattus norvegicus [2] and 3.94 in the experiment with Rattus norvegicus [7]. Moreover, the Am in the experiment filed under Oryctolagus cuniculus [3] is listed as 24.15%; in the experiment filed under Oryctolagus cuniculus [4] it was 10.22%; in the experiment filed under Oryctolagus cuniculus [5], 25.18%; in the experiment filed under Oryctolagus cuniculus [6], 51.88%; in the experiment listed under Oryctolagus cuniculus [8], 10.13%; in the experiment listed under Oryctolagus cuniculus [9] it was 33.76%.

Regarding `CC(=O)Oc1ccccc1C(=O)O` [ASPIRIN], the Activity amounted to 28.11 in the experiment on Rattus norvegicus [2] and 3.99 in the experiment on Rattus norvegicus [7]. In addition, the Am in the experiment filed under Oryctolagus cuniculus [3] was determined as 42.58%; in the experiment listed under Oryctolagus cuniculus [4], 29.99%; in the experiment listed under Oryctolagus cuniculus [5], 36.98%; in the experiment filed under Oryctolagus cuniculus [6] it was 53.42%; in the experiment listed under Oryctolagus cuniculus [8], 30.01%; in the experiment filed under Oryctolagus cuniculus [9] it was 54.89%.

`CC1(C)N(O)C(c2ccc(OCC(=O)N[C@@H](CCCN=C(N)N)C(=O)NCC(=O)N[C@@H](CC(=O)O)C(=O)N[C@@H](CO)C(=O)O)cc2)=[N+]([O-])C1(C)C` (X1-RGDS-OH) had an Inhibition in the experiment filed under Rattus norvegicus [1] of 88.9%. Besides, the Activity in the experiment on Rattus norvegicus [2] is given as 32.09; in the experiment with Rattus norvegicus [7], 5.08. Moreover, the Am is listed as 40.05% in the experiment listed under Oryctolagus cuniculus [3]; 22.05% in the experiment listed under Oryctolagus cuniculus [4]; 35.11% in the experiment listed under Oryctolagus cuniculus [5]; 52.1% in the experiment filed under Oryctolagus cuniculus [6]; 16.91% in the experiment filed under Oryctolagus cuniculus [8]; 51.46% in the experiment filed under Oryctolagus cuniculus [9].

Compound `CC(C)[C@H](NC(=O)[C@H](CC(=O)O)NC(=O)CNC(=O)[C@@H](N)CCCNC(=N)N)C(=O)O` (H-RGDV-OH) returned an Inhibition in the experiment listed under Rattus norvegicus [1] of 2.4%. Further, the Activity in the experiment with Rattus norvegicus [2] amounted to 32.62; with Rattus norvegicus [7], 5.13. The Am in the experiment filed under Oryctolagus cuniculus [3] was found to be 28.9%; in the experiment listed under Oryctolagus cuniculus [4], 20.5%; in the experiment listed under Oryctolagus cuniculus [5] it was 35.11%; in the experiment listed under Oryctolagus cuniculus [6], 52.66%; in the experiment filed under Oryctolagus cuniculus [8] it was 12.07%; in the experiment filed under Oryctolagus cuniculus [9] it was 50.06%.
